Source: patent US9302999B2, “Substituted triazoles as herbicides” (E. I. DU PONT DE NEMOURS AND COMPANY, priority 2012, dated 2016)

Assays:
Type in all cases: in vivo
[1] = test system: wild oat (Avena fatua); test: Test C pre-/postemergence: wild oat
Procedure, shortened: (§1)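 Visual injury scored 0–100 (100 = complete control) against untreated controls after 13–15 greenhouse days. Surfactant-containing solvent formulations applied either to soil after sowing (loam/sand) or over 1- to 4-leaf plants, 2–18 cm tall.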

[2] = test system: kochia (Kochia scoparia); test: Test C pre-/postemergence: kochia
Procedure, shortened: as §1

[3] = test system: ryegrass, Italian (Italian ryegrass, Lolium multiflorum); test: Test C pre-/postemergence: ryegrass, Italian
Procedure, shortened: as §1

[4] = test system: large crabgrass (Digitaria sanguinalis); test: Test C pre-/postemergence: large crabgrass
Procedure, shortened: as §1

[5] = test system: corn (Zea mays); test: Test C pre-/postemergence: corn
Procedure, shortened: as §1

[6] = test system: galium (catchweed bedstraw, Galium aparine); test: Test C pre-/postemergence: galium
Procedure, shortened: as §1

[7] = test system: velvetleaf (Abutilon theophrasti); test: Test C pre-/postemergence: velvetleaf
Procedure, shortened: as §1

[8] = test system: ducksalad (Heteranthera limosa); test: Test B flooded paddy: ducksalad; conditions: Flood, applied to paddy water at 2-leaf stage, visually evaluated after 13 to 15 days
Procedure, shortened: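 At two leaves, seedlings received the test compound via the paddy water, pots having been flooded 3 cm over the soil surface and kept so. Greenhouse-held for 13 to 15 days, then judged by eye against controls on a scale running 0 (no effect) to 100 (complete control).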

[9] = test system: foxtail, giant (giant foxtail, Setaria faberii); test: Test C pre-/postemergence: foxtail, giant
Procedure, shortened: as §1

[10] = test system: johnsongrass (Sorghum halepense); test: Test C pre-/postemergence: johnsongrass
Procedure, shortened: as §1

[11] = test system: morningglory (Ipomoea coccinea); test: Test C pre-/postemergence: morningglory
Procedure, shortened: as §1

[12] = Postemergence, 31 g ai/ha, scale 0 to 100 (0 no effect, 100 complete control)
[13] = Postemergence, 62 g ai/ha, scale 0 to 100 (0 no effect, 100 complete control)
[14] = Postemergence, 125 g ai/ha, scale 0 to 100, 0 no effect, 100 complete control
[15] = Postemergence, 250 g ai/ha, scale 0 to 100
[16] = Preemergence, 31 g ai/ha, scale of 0 to 100, 0 is no effect, 100 is complete control
[17] = Preemergence, 62 g ai/ha, scale of 0 to 100, 0 is no effect, 100 is complete control
[18] = Preemergence, 125 g ai/ha, scale 0 to 100, 0 no effect, 100 complete control
[19] = Preemergence, 250 g ai/ha, scale 0 to 100, 0 no effect, 100 complete control
[20] = Preemergence, 62 g ai/ha, scale 0 to 100, 0 no effect, 100 complete control

Structure (SMILES): Fc1ccc(-n2nc(Cc3ccnc(C(F)(F)F)c3)c(OC(F)F)n2)cc1 [Compound 25]
- Plant response rating, Oat, Wild [1, 12]: 5
- Plant response rating, Oat, Wild [1, 13]: 5
- Plant response rating, Oat, Wild [1, 14]: 30
- Plant response rating, Oat, Wild [1, 15]: 30
- Plant response rating, Oat, Wild [1, 16]: 20
- Plant response rating, Oat, Wild [1, 17]: 30
- Plant response rating, Oat, Wild [1, 18]: 80
- Plant response rating, Oat, Wild [1, 19]: 90
- Plant response rating, Kochia [2, 12]: 75
- Plant response rating, Kochia [2, 13]: 80
- Plant response rating, Kochia [2, 14]: 90
- Plant response rating, Kochia [2, 15]: 90
- Plant response rating, Kochia [2, 16]: 10
- Plant response rating, Kochia [2, 17]: 40
- Plant response rating, Kochia [2, 18]: 55
- Plant response rating, Kochia [2, 19]: 85
- Plant response rating, Ryegrass, Italian [3, 12]: 5
- Plant response rating, Ryegrass, Italian [3, 13]: 5
- Plant response rating, Ryegrass, Italian [3, 14]: 5
- Plant response rating, Ryegrass, Italian [3, 15]: 5
- Plant response rating, Ryegrass, Italian [3, 16]: 5
- Plant response rating, Ryegrass, Italian [3, 17]: 35
- Plant response rating, Ryegrass, Italian [3, 18]: 45
- Plant response rating, Ryegrass, Italian [3, 19]: 90
- Plant response rating, Crabgrass, Large [4, 12]: 15
- Plant response rating, Crabgrass, Large [4, 13]: 20
- Plant response rating, Crabgrass, Large [4, 14]: 40
- Plant response rating, Crabgrass, Large [4, 15]: 65
- Plant response rating, Crabgrass, Large [4, 16]: 98
- Plant response rating, Crabgrass, Large [4, 17]: 100
- Plant response rating, Crabgrass, Large [4, 18]: 100
- Plant response rating, Crabgrass, Large [4, 19]: 100
- Plant response rating, Corn [5, 12]: 20
- Plant response rating, Corn [5, 13]: 20
- Plant response rating, Corn [5, 14]: 20
- Plant response rating, Corn [5, 15]: 25
- Plant response rating, Corn [5, 16]: 0
- Plant response rating, Corn [5, 20]: 0
- Plant response rating, Corn [5, 18]: 5
- Plant response rating, Corn [5, 19]: 10
- Plant response rating, Galium [6, 12]: 50
- Plant response rating, Galium [6, 13]: 50
- Plant response rating, Galium [6, 14]: 55
- Plant response rating, Galium [6, 15]: 55
- Plant response rating, Galium [6, 16]: 0
- Plant response rating, Galium [6, 17]: 15
- Plant response rating, Galium [6, 18]: 80
- Plant response rating, Galium [6, 19]: 98
- Plant response rating, Velvetleaf [7, 12]: 15
- Plant response rating, Velvetleaf [7, 13]: 15
- Plant response rating, Velvetleaf [7, 14]: 45
- Plant response rating, Velvetleaf [7, 15]: 50
- Plant response rating, Velvetleaf [7, 16]: 0
- Plant response rating, Velvetleaf [7, 17]: 5
- Plant response rating, Velvetleaf [7, 18]: 15
- Plant response rating, Velvetleaf [7, 19]: 70
- Plant response rating, Ducksalad (0 to 100 scale, 0 is no effect, 100 is complete control) ([8]; 250 g ai/ha): 90
- Plant response rating, Foxtail, Giant [9, 12]: 35
- Plant response rating, Foxtail, Giant [9, 13]: 45
- Plant response rating, Foxtail, Giant [9, 14]: 55
- Plant response rating, Foxtail, Giant [9, 15]: 60
- Plant response rating, Foxtail, Giant [9, 16]: 98
- Plant response rating, Foxtail, Giant [9, 17]: 100
- Plant response rating, Foxtail, Giant [9, 18]: 100
- Plant response rating, Foxtail, Giant [9, 19]: 100
- Plant response rating, Johnsongrass [10, 12]: 5
- Plant response rating, Johnsongrass [10, 13]: 5
- Plant response rating, Johnsongrass [10, 14]: 10
- Plant response rating, Johnsongrass [10, 15]: 15
- Plant response rating, Johnsongrass [10, 16]: 5
- Plant response rating, Johnsongrass [10, 17]: 30
- Plant response rating, Johnsongrass [10, 18]: 65
- Plant response rating, Johnsongrass [10, 19]: 98

Structure (SMILES): Cc1nn(-c2ccc(F)cc2F)nc1Cc1ccnc(C(F)(F)F)c1 [Compound 54, 4-[[2-(2,4-difluorophenyl)-5-methyl-2H-1,2,3-triazol-4-yl]methyl]-2-(trifluoromethyl)pyridine]
- Plant response rating, Ducksalad (0 to 100 scale, 0 is no effect, 100 is complete control) ([8]; 250 g ai/ha): 85

Structure (SMILES): Cc1nn(-c2ccc(C(F)(F)F)cc2)nc1Oc1ccnc(C(F)(F)F)c1 [Compound 120]
- Plant response rating, Oat, Wild [1, 12]: 55
- Plant response rating, Oat, Wild [1, 13]: 60
- Plant response rating, Oat, Wild [1, 14]: 80
- Plant response rating, Oat, Wild [1, 15]: 90
- Plant response rating, Oat, Wild [1, 16]: 85
- Plant response rating, Oat, Wild [1, 17]: 90
- Plant response rating, Oat, Wild [1, 18]: 95
- Plant response rating, Oat, Wild [1, 19]: 95
- Plant response rating, Kochia [2, 12]: 65
- Plant response rating, Kochia [2, 13]: 95
- Plant response rating, Kochia [2, 14]: 98
- Plant response rating, Kochia [2, 15]: 98
- Plant response rating, Kochia [2, 16]: 10
- Plant response rating, Kochia [2, 17]: 90
- Plant response rating, Kochia [2, 18]: 100
- Plant response rating, Kochia [2, 19]: 100
- Plant response rating, Ryegrass, Italian [3, 12]: 5
- Plant response rating, Ryegrass, Italian [3, 13]: 5
- Plant response rating, Ryegrass, Italian [3, 14]: 5
- Plant response rating, Ryegrass, Italian [3, 15]: 30
- Plant response rating, Ryegrass, Italian [3, 16]: 40
- Plant response rating, Ryegrass, Italian [3, 17]: 90
- Plant response rating, Ryegrass, Italian [3, 18]: 90
- Plant response rating, Ryegrass, Italian [3, 19]: 95
- Plant response rating, Crabgrass, Large [4, 12]: 5
- Plant response rating, Crabgrass, Large [4, 13]: 25
- Plant response rating, Crabgrass, Large [4, 14]: 25
- Plant response rating, Crabgrass, Large [4, 15]: 45
- Plant response rating, Crabgrass, Large [4, 16]: 100
- Plant response rating, Crabgrass, Large [4, 17]: 100
- Plant response rating, Crabgrass, Large [4, 18]: 100
- Plant response rating, Crabgrass, Large [4, 19]: 100
- Plant response rating, Corn [5, 12]: 5
- Plant response rating, Corn [5, 13]: 10
- Plant response rating, Corn [5, 14]: 10
- Plant response rating, Corn [5, 15]: 10
- Plant response rating, Corn [5, 16]: 0
- Plant response rating, Corn [5, 20]: 5
- Plant response rating, Corn [5, 18]: 25
- Plant response rating, Corn [5, 19]: 50
- Plant response rating, Galium [6, 12]: 80
- Plant response rating, Galium [6, 13]: 80
- Plant response rating, Galium [6, 14]: 85
- Plant response rating, Galium [6, 16]: 98
- Plant response rating, Galium [6, 17]: 100
- Plant response rating, Galium [6, 18]: 100
- Plant response rating, Galium [6, 19]: 100
- Plant response rating, Velvetleaf [7, 12]: 20
- Plant response rating, Velvetleaf [7, 13]: 45
- Plant response rating, Velvetleaf [7, 14]: 55
- Plant response rating, Velvetleaf [7, 15]: 65
- Plant response rating, Velvetleaf [7, 16]: 5
- Plant response rating, Velvetleaf [7, 17]: 15
- Plant response rating, Velvetleaf [7, 18]: 35
- Plant response rating, Velvetleaf [7, 19]: 100
- Plant response rating, Foxtail, Giant [9, 12]: 5
- Plant response rating, Foxtail, Giant [9, 13]: 45
- Plant response rating, Foxtail, Giant [9, 14]: 50
- Plant response rating, Foxtail, Giant [9, 15]: 55
- Plant response rating, Foxtail, Giant [9, 16]: 98
- Plant response rating, Foxtail, Giant [9, 17]: 98
- Plant response rating, Foxtail, Giant [9, 18]: 98
- Plant response rating, Foxtail, Giant [9, 19]: 100
- Plant response rating, Johnsongrass [10, 12]: 0
- Plant response rating, Johnsongrass [10, 13]: 5
- Plant response rating, Johnsongrass [10, 14]: 25
- Plant response rating, Johnsongrass [10, 15]: 45
- Plant response rating, Johnsongrass [10, 16]: 25
- Plant response rating, Johnsongrass [10, 17]: 80
- Plant response rating, Johnsongrass [10, 18]: 95
- Plant response rating, Johnsongrass [10, 19]: 98
- Plant response rating, Morningglory [11, 12]: 60
- Plant response rating, Morningglory [11, 13]: 60
- Plant response rating, Morningglory [11, 14]: 65
- Plant response rating, Morningglory [11, 15]: 98
- Plant response rating, Morningglory [11, 16]: 45
- Plant response rating, Morningglory [11, 17]: 45
- Plant response rating, Morningglory [11, 18]: 45
- Plant response rating, Morningglory [11, 19]: 90

Structure (SMILES): CCOCc1nn(-c2ccc(F)cc2)nc1Oc1ccnc(C(F)(F)F)c1 [Compound 163]
- Plant response rating, Ryegrass, Italian [3, 16]: 10
- Plant response rating, Ryegrass, Italian [3, 17]: 45
- Plant response rating, Ryegrass, Italian [3, 18]: 65
- Plant response rating, Ryegrass, Italian [3, 19]: 85
- Plant response rating, Crabgrass, Large [4, 16]: 65
- Plant response rating, Crabgrass, Large [4, 17]: 100
- Plant response rating, Crabgrass, Large [4, 18]: 100
- Plant response rating, Crabgrass, Large [4, 19]: 100
- Plant response rating, Corn [5, 16]: 10
- Plant response rating, Corn [5, 17]: 10
- Plant response rating, Corn [5, 19]: 10
- Plant response rating, Galium [6, 16]: 0
- Plant response rating, Galium [6, 17]: 5
- Plant response rating, Galium [6, 18]: 5
- Plant response rating, Galium [6, 19]: 75
- Plant response rating, Velvetleaf [7, 16]: 0
- Plant response rating, Velvetleaf [7, 17]: 10
- Plant response rating, Velvetleaf [7, 18]: 20
- Plant response rating, Velvetleaf [7, 19]: 75
- Plant response rating, Ducksalad (0 to 100 scale, 0 is no effect, 100 is complete control) ([8]; 125 g ai/ha): 70
- Plant response rating, Foxtail, Giant [9, 16]: 40
- Plant response rating, Foxtail, Giant [9, 17]: 60
- Plant response rating, Foxtail, Giant [9, 18]: 80
- Plant response rating, Foxtail, Giant [9, 19]: 100
- Plant response rating, Johnsongrass [10, 16]: 30
- Plant response rating, Johnsongrass [10, 17]: 35
- Plant response rating, Johnsongrass [10, 18]: 60
- Plant response rating, Johnsongrass [10, 19]: 60
- Plant response rating, Morningglory [11, 16]: 20
- Plant response rating, Morningglory [11, 17]: 25
- Plant response rating, Morningglory [11, 18]: 30
- Plant response rating, Morningglory [11, 19]: 75
